Data set [1] in a line: physchem. The class given is physicochemical. To be noted: pH 7.5. In short, it runs like this:
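Peptide at 250 μM in 10 mM HEPES pH 7.5 with 1 μM Thioflavin T, incubated at 37° C with 960 rpm orbital shaking. ThT fluorescence (ex 444/em 485 nm) read every 20 min; lag-time (t0−2τ) and kapp (1/τ) from curve fit. Recovery is post-assay supernatant peptide by RP-HPLC as % of initial.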

The target in data set [2] is T1, human glucagon receptor (Homo sapiens, UniProt P47871).
T1 construct: expressed in transfected cells; host or cells: BHK cells, clone BHK hGCGR A3*25; isolated membranes
Put plainly: Assay (I)(b): glucagon receptor activation, CRE luciferase reporter gene assay in BHK cells. The class given is cell-based. To be noted: BHK cells expressing human glucagon receptor and CRE luciferase, 3 h incubation; read-out: EC50 hGlucagonR. In short, it runs like this: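 BHK570 cells stably expressing the human glucagon receptor and CRE-luciferase, 5×10 EE3 cells/well in DMEM with 2% ovalbumin and 0.2% Pluronic F-68. Compounds at final 1×10 EE-6 to 1×10 EE-13 M, 3 h at 37° C. Luminescence read; EC50 by four-parameter fit.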
(In a reporter assay the amount or activity of a reporter protein is the signal.)

Structures are written as SMILES. *1 amine or outer side, *2 acyl side, *3 side chain or, on linkers, in order; H or OH if unused. Where a SMILES comes first, the peptide text is derived from it. Side-chain parts run from the residue outwards. [ ]: non-standard residue; d: D form. The star is where a group is joined. γGlu = O=C(O)[C@H](CCC(=O)[*:2])N[*:1]; Desaminohistidyl = O=C(CCc1c[nH]cn1)*; Aib = CC(C)(N)C(=O)O

Recovery and EC50 data for four molecules are collected here from patent US9963496B2, “Stable glucagon analogues and use for treatment of hypoglycaemia” (Novo Nordisk A/S, priority 2014, dated 2018).

The EC50 is the concentration at which the effect is half-maximal.

T1 sequence (P47871 26-477): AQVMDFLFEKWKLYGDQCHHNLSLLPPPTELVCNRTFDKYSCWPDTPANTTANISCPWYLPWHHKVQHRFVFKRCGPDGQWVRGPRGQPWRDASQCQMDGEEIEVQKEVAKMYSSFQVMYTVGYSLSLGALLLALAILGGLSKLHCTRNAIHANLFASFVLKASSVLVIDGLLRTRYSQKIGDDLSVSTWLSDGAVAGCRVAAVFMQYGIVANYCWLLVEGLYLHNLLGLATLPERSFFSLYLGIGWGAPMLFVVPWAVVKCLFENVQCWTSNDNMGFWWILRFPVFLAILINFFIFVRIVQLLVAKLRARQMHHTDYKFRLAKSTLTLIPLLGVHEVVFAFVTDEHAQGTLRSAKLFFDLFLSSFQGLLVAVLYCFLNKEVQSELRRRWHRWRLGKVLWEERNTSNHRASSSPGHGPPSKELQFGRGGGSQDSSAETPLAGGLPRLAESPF

In data set [1], `CC(=O)N[C@@H](CCC(=O)N[C@@H](CCC(=O)N[C@@H](CCC(=O)N[C@@H](CCC(=O)NCCCC[C@H](NC(=O)[C@@H](NC(=O)[C@H](Cc1ccccc1)NC(=O)[C@H](CC(=O)O)NC(=O)[C@H](CCC(N)=O)NC(=O)[C@H](C)NC(=O)[C@H](CCCNC(=N)N)NC(=O)[C@H](CCCNC(=N)N)NC(=O)[C@@H](NC(=O)[C@H](CC(=O)O)NC(=O)[C@H](CC(C)C)NC(=O)[C@H](Cc1ccc(O)cc1)NC(=O)[C@H](CCCCN)NC(=O)[C@H](CO)NC(=O)[C@H](Cc1ccc(O)cc1)NC(=O)[C@H](CC(=O)O)NC(=O)[C@H](CO)NC(=O)[C@@H](NC(=O)[C@H](Cc1ccccc1)NC(=O)[C@@H](NC(=O)CNC(=O)[C@H](Cc1c[nH]cn1)NC(=O)C(C)(C)NC(=O)CCc1c[nH]cn1)[C@@H](C)O)[C@@H](C)O)C(C)C)C(C)C)C(=O)N[C@@H](Cc1c[nH]c2ccccc12)C(=O)N[C@@H](CC(C)C)C(=O)N[C@@H](CC(C)C)C(=O)N[C@@H](CO)C(=O)N[C@H](C(=O)O)[C@@H](C)O)C(=O)O)C(=O)O)C(=O)O)C(=O)O` [Example 10, N^ϵ24-[(4S)-4-[[(4S)-4-[[(4S)-4-[[(4S)-4-acetamido-4-carboxybutanoyl]amino]-4-carboxybutanoyl]amino]-4-carboxybutanoyl]amino]-4-carboxybutanoyl]-[Imp1, Aib2, His3, Val16, Lys24, Leu27, Ser28]-Glucagon] (Desaminohistidyl-[Aib]HGTFTSDYSKYLDVRRAQDFVK([γGlu-γGlu-γGlu-γGlu-Ac])WLLST-OH) returned a recovery at 250 μM of 100%. Moreover, the half-maximal effective concentration (EC50) in data set [2] was 2 pM.
In data set [1], `CC(=O)N[C@@H](CCC(=O)N[C@@H](CCC(=O)N[C@@H](CCC(=O)N[C@@H](CCC(=O)NCCCC[C@H](NC(=O)[C@H](CC(C)C)NC(=O)[C@H](CC(C)C)NC(=O)[C@H](Cc1c[nH]c2ccccc12)NC(=O)[C@H](C)NC(=O)[C@@H](NC(=O)[C@H](Cc1ccccc1)NC(=O)[C@H](CC(=O)O)NC(=O)[C@H](CCC(N)=O)NC(=O)[C@H](C)NC(=O)[C@H](CCCNC(=N)N)NC(=O)[C@H](CCCNC(=N)N)NC(=O)[C@H](CO)NC(=O)[C@H](CCC(=O)O)NC(=O)[C@H](CC(C)C)NC(=O)[C@H](Cc1ccc(O)cc1)NC(=O)[C@H](CCCCN)NC(=O)[C@H](CO)NC(=O)[C@H](Cc1ccc(O)cc1)NC(=O)[C@H](CC(=O)O)NC(=O)[C@H](CO)NC(=O)[C@@H](NC(=O)[C@H](Cc1ccccc1)NC(=O)[C@@H](NC(=O)CNC(=O)[C@H](Cc1c[nH]cn1)NC(=O)C(C)(C)NC(=O)CCc1c[nH]cn1)[C@@H](C)O)[C@@H](C)O)C(C)C)C(=O)N[C@H](C(=O)O)[C@@H](C)O)C(=O)O)C(=O)O)C(=O)O)C(=O)O` [Example 4, N^ϵ28-[(4S)-4-[[(4S)-4-[[(4S)-4-[[(4S)-4-acetamido-4-carboxybutanoyl]amino]-4-carboxybutanoyl]amino]-4-carboxybutanoyl]amino]-4-carboxybutanoyl]-[Imp1, Aib2, His3, Glu15, Ala24, Leu27, Lys28]-Glucagon] (Desaminohistidyl-[Aib]HGTFTSDYSKYLESRRAQDFVAWLLK([γGlu-γGlu-γGlu-γGlu-Ac])T-OH) gave a recovery at 250 μM of 100%. In data set [2], the EC50 was 5 pM.
Take `CC(=O)N[C@@H](CCC(=O)N[C@@H](CCC(=O)N[C@@H](CCC(=O)N[C@@H](CCC(=O)NCCCC[C@H](NC(=O)[C@@H](NC(=O)[C@H](Cc1ccccc1)NC(=O)[C@H](CC(=O)O)NC(=O)[C@H](CCC(N)=O)NC(=O)[C@H](C)NC(=O)[C@H](CCCNC(=N)N)NC(=O)[C@H](CCCNC(=N)N)NC(=O)[C@H](CC(C)C)NC(=O)[C@H](CC(=O)O)NC(=O)[C@H](CC(C)C)NC(=O)[C@H](Cc1ccc(O)cc1)NC(=O)[C@H](CCCCN)NC(=O)[C@H](CO)NC(=O)[C@H](Cc1ccc(O)cc1)NC(=O)[C@H](CC(=O)O)NC(=O)[C@H](CO)NC(=O)[C@@H](NC(=O)[C@H](Cc1ccccc1)NC(=O)[C@@H](NC(=O)CNC(=O)[C@H](Cc1c[nH]cn1)NC(=O)C(C)(C)NC(=O)CCc1c[nH]cn1)[C@@H](C)O)[C@@H](C)O)C(C)C)C(=O)N[C@@H](Cc1c[nH]c2ccccc12)C(=O)N[C@@H](CC(C)C)C(=O)N[C@@H](CC(C)C)C(=O)N[C@@H](CO)C(=O)N[C@H](C(=O)O)[C@@H](C)O)C(=O)O)C(=O)O)C(=O)O)C(=O)O` [Example 1, N^ϵ24-[(4S)-4-[[(4S)-4-[[(4S)-4-[[(4S)-4-acetamido-4-carboxybutanoyl]amino]-4-carboxybutanoyl]amino]-4-carboxybutanoyl]amino]-4-carboxybutanoyl]-[Imp1, Aib2, His3, Leu16, Lys24, Leu27, Ser28]-Glucagon] (Desaminohistidyl-[Aib]HGTFTSDYSKYLDLRRAQDFVK([γGlu-γGlu-γGlu-γGlu-Ac])WLLST-OH): the recovery at 250 μM in data set [1] is 101%. For the same molecule, in data set [2], the EC50 was 1 pM.
`CC(=O)N[C@@H](CCC(=O)N[C@@H](CCC(=O)N[C@@H](CCC(=O)N[C@@H](CCC(=O)NCCCC[C@H](NC(=O)[C@@H](NC(=O)[C@H](Cc1ccccc1)NC(=O)[C@H](CCC(=O)O)NC(=O)[C@H](CCC(N)=O)NC(=O)[C@H](C)NC(=O)[C@H](CCCNC(=N)N)NC(=O)[C@H](CCCNC(=N)N)NC(=O)[C@H](CC(C)C)NC(=O)[C@H](CC(=O)O)NC(=O)[C@H](CC(C)C)NC(=O)[C@H](Cc1ccc(O)cc1)NC(=O)[C@H](CCCCN)NC(=O)[C@H](CO)NC(=O)[C@H](Cc1ccc(O)cc1)NC(=O)[C@H](CC(=O)O)NC(=O)[C@H](CO)NC(=O)[C@@H](NC(=O)[C@H](Cc1ccccc1)NC(=O)[C@@H](NC(=O)CNC(=O)[C@H](Cc1c[nH]cn1)NC(=O)[C@H](CO)NC(=O)CCc1c[nH]cn1)[C@@H](C)O)[C@@H](C)O)C(C)C)C(=O)N[C@@H](Cc1c[nH]c2ccccc12)C(=O)N[C@@H](CC(C)C)C(=O)N[C@@H](CC(C)C)C(=O)N[C@@H](CO)C(=O)N[C@H](C(=O)O)[C@@H](C)O)C(=O)O)C(=O)O)C(=O)O)C(=O)O` [Example 8, N^ϵ24-[(4S)-4-[[(4S)-4-[[(4S)-4-[[(4S)-4-acetamido-4-carboxybutanoyl]amino]-4-carboxybutanoyl]amino]-4-carboxybutanoyl]amino]-4-carboxybutanoyl]-[Imp1, His3, Leu16, Glu21, Lys24, Leu27, Ser28]-Glucagon] (Desaminohistidyl-SHGTFTSDYSKYLDLRRAQEFVK([γGlu-γGlu-γGlu-γGlu-Ac])WLLST-OH): in data set [1], the recovery at 250 μM is 103%. In data set [2], the EC50 is 1 pM.
